BindingDB's records for doi:10.1021/jm00164a002 (Syntex Research, 1990)

Target: T1, Neutrophil elastase (Homo sapiens, UniProt P08246)
T1 sequence (P08246 whole entry): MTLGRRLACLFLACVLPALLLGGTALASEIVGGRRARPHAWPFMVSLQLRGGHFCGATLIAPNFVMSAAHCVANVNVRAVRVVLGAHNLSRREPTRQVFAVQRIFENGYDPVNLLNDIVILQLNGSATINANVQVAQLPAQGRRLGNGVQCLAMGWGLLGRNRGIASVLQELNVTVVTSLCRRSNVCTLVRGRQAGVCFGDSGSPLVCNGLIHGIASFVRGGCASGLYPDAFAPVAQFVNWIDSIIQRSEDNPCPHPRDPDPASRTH
Assay: Component deacylation rate constant for interaction with human leukocyte elastase
Settings: for kon: read-out: kon (M-1-s-1)

Which koff does the source give for Cc1cccc2nc(OCC(C)C)oc(=O)c12 here?
The koff was 1.12e-05 s⁻¹.

And the kon?
The kon was 7080 M⁻¹ s⁻¹.

With COC(=O)[C@H](CC(C)C)Nc1nc2ccccc2c(=O)o1 as the compound, how does the Ki read?
Its Ki is 159 nM.

And the koff?
The koff was 0.000389 s⁻¹.

And the kon?
The kon was 2290 M⁻¹ s⁻¹.

With C/C=C/c1cccc2nc(OCC)oc(=O)c12 as the compound, how does the koff read?
The koff was 6.61e-05 s⁻¹.

What about the kon of the same compound?
The kon was 347000 M⁻¹ s⁻¹.

With Cc1ccc2nc(C)oc(=O)c2c1 as the compound, how does the Ki read?
Its Ki is 31600 nM.

For CCCCN(CCCC)c1nc2ccccc2c(=O)o1, which Ki is on record?
Its Ki is 5010 nM.

What about the koff of the same compound?
The koff was 0.00123 s⁻¹.

What about the kon of the same compound?
Its kon is 269 M⁻¹ s⁻¹.

CCOc1nc2cc(N(C)C)ccc2c(=O)o1 was tested. Which koff did it give?
The koff was 1.41e-05 s⁻¹.

What about the kon of the same compound?
The kon was 2880 M⁻¹ s⁻¹.

What does the source list for CCSc1nc2ccc(NC(C)=O)cc2c(=O)o1?
Ki: 1590 nM; kon: 10000 M⁻¹ s⁻¹

Which results are given for CCCC(C)Nc1nc2cccc(C)c2c(=O)o1 (configuration not stated)?
Ki: 794 nM; koff: 0.00371 s⁻¹; kon: 5010 M⁻¹ s⁻¹

CC(C)Nc1nc2cc(N(C)C)ccc2c(=O)o1 was tested. Which koff did it give?
The koff was 0.000479 s⁻¹.

And the kon?
The kon was 1000 M⁻¹ s⁻¹.

Which kon does the source give for CC(C)Cc1nc2ccccc2c(=O)o1 here?
Its kon is 20000 M⁻¹ s⁻¹.

With CNc1nc2cccc(C)c2c(=O)o1 [5-Methyl-2-methylamino-benzo[d][1,3]oxazin-4-one] as the compound, how does the koff read?
The koff was 0.151 s⁻¹.

And the kon?
The kon was 4900 M⁻¹ s⁻¹.

CCCc1cccc2nc(OCC)oc(=O)c12 was tested. Which koff did it give?
The koff was 7.08e-05 s⁻¹.

What about the kon of the same compound?
The kon was 309000 M⁻¹ s⁻¹.

Which Ki does the source give for Cc1cc(C)c2c(=O)oc(NC(C)C)nc2c1 here?
The Ki was 6.31 nM.

And the koff?
The koff was 1.51e-05 s⁻¹.

And the kon?
Its kon is 2570 M⁻¹ s⁻¹.

What does the source list for COc1cc2nc(SCc3ccccc3)oc(=O)c2cc1OC?
Ki: 2000 nM; koff: 0.0123 s⁻¹; kon: 5750 M⁻¹ s⁻¹

CC(C)Nc1nc2ccccc2c(=O)o1 [2-Isopropylamino-benzo[d][1,3]oxazin-4-one] was tested. Which koff did it give?
The koff was 0.00309 s⁻¹.

What about the kon of the same compound?
The kon was 58900 M⁻¹ s⁻¹.

Which results are given for CCCCNc1nc2cccc(CC)c2c(=O)o1 [2-Butylamino-5-ethyl-benzo[d][1,3]oxazin-4-one]?
koff: 0.000537 s⁻¹; kon: 129000 M⁻¹ s⁻¹

CCCCNc1nc2ccccc2c(=O)o1 [2-Butylamino-benzo[d][1,3]oxazin-4-one] was tested. Which Ki did it give?
The Ki was 79.4 nM.

Which Ki does the source give for Cc1cccc2nc(C(F)(F)F)oc(=O)c12 here?
The Ki was 31.6 nM.

And the koff?
The koff was 0.00371 s⁻¹.

What about the kon of the same compound?
Its kon is 129000 M⁻¹ s⁻¹.

For COc1cc2nc(SCc3c[nH]cn3)oc(=O)c2cc1OC, which Ki is on record?
The Ki was 1000 nM.

And the koff?
The koff was 0.00759 s⁻¹.

What about the kon of the same compound?
The kon was 6920 M⁻¹ s⁻¹.

Which kon does the source give for O=c1oc(-c2ccccc2)nc2ccccc12 [2-Phenyl-4H-3,1-benzoxazin-4-one (3)] here?
Its kon is 10000 M⁻¹ s⁻¹.

For CC(=O)NCc1nc2ccccc2c(=O)o1, which koff is on record?
Its koff is 0.00132 s⁻¹.

What about the kon of the same compound?
The kon was 174 M⁻¹ s⁻¹.

What does the source list for O=c1oc(NCCc2ccccc2)nc2ccccc12?
Ki: 1590 nM; koff: 0.00191 s⁻¹; kon: 1120 M⁻¹ s⁻¹

Which results are given for CCSc1nc2cccc(C)c2c(=O)o1?
koff: 0.00141 s⁻¹; kon: 1.51e+06 M⁻¹ s⁻¹

Which koff does the source give for CCCCNc1nc2cc(N)ccc2c(=O)o1 here?
The koff was 0.00182 s⁻¹.

And the kon?
The kon was 2820 M⁻¹ s⁻¹.

With Cc1cccc2c(=O)oc(NC(C)C)nc12 as the compound, how does the Ki read?
Its Ki is 631 nM.

How did the kon turn out when COC(=O)[C@H](CC(C)C)NC(=O)[C@H](CC(C)C)Nc1nc2cc(C)cc(C)c2c(=O)o1 was run?
Its kon is 1260 M⁻¹ s⁻¹.

Which results are given for NC(=O)[C@H](Cc1ccccc1)NC(=O)[C@@H]1CCCN1c1nc2ccccc2c(=O)o1?
Ki: 39.8 nM; koff: 0.000537 s⁻¹; kon: 14400 M⁻¹ s⁻¹

How did the Ki turn out when Cc1cccc2nc(NC(C)C)oc(=O)c12 [2-Isopropylamino-5-methyl-benzo[d][1,3]oxazin-4-one] was run?
The Ki was 1.58 nM.

Which results are given for Cc1cc(N)cc2nc(NC(C)C)oc(=O)c12?
koff: 1.78e-05 s⁻¹; kon: 229 M⁻¹ s⁻¹

Which results are given for O=c1oc(C(F)(F)F)nc2ccccc12?
Ki: 159 nM; kon: 100000 M⁻¹ s⁻¹

How did the koff turn out when CCCNC(=O)Nc1ccc2c(=O)oc(NC(C)C)nc2c1 was run?
Its koff is 0.017 s⁻¹.

And the kon?
The kon was 12600 M⁻¹ s⁻¹.

Which results are given for CCc1cccc2c(=O)oc(NC(C)C)nc12?
koff: 0.024 s⁻¹; kon: 24000 M⁻¹ s⁻¹

Which results are given for CCCc1cc(N(C)C)cc2nc(NC(C)C)oc(=O)c12?
koff: 0.000182 s⁻¹; kon: 646 M⁻¹ s⁻¹

Which koff does the source give for CC(C)C[C@H](NC(=O)C1CCCN1c1nc2ccccc2c(=O)o1)C(N)=O (some centres not stated) here?
Its koff is 0.000324 s⁻¹.

And the kon?
Its kon is 15100 M⁻¹ s⁻¹.

Which koff does the source give for O=c1oc(/C=C/c2ccccc2)nc2ccccc12 here?
Its koff is 0.00316 s⁻¹.

And the kon?
Its kon is 389 M⁻¹ s⁻¹.

Which results are given for CCSc1nc2ccc(C)cc2c(=O)o1?
Ki: 159 nM; kon: 1e+06 M⁻¹ s⁻¹

CC(C)(C)c1nc2ccccc2c(=O)o1 was tested. Which kon did it give?
Its kon is 10000 M⁻¹ s⁻¹.

What does the source list for NC(=O)[C@H](Cc1ccccc1)Nc1nc2ccccc2c(=O)o1?
koff: 0.00038 s⁻¹; kon: 1200 M⁻¹ s⁻¹

What does the source list for CCOc1nc2cccc(C(Br)Br)c2c(=O)o1?
koff: 0.00468 s⁻¹; kon: 1e+07 M⁻¹ s⁻¹

With CCSc1nc2c(C)cccc2c(=O)o1 as the compound, how does the kon read?
The kon was 2e+06 M⁻¹ s⁻¹.

Which Ki does the source give for CCCNc1nc2ccccc2c(=O)o1 [2-Propylamino-benzo[d][1,3]oxazin-4-one] here?
The Ki was 100 nM.

How did the koff turn out when CCC(C)CNc1nc2cccc(C)c2c(=O)o1 (configuration not stated) was run?
Its koff is 7.41e-05 s⁻¹.

And the kon?
Its kon is 112 M⁻¹ s⁻¹.

What does the source list for CC(C)CN(CC(C)C)c1nc2ccccc2c(=O)o1?
koff: 0.000977 s⁻¹; kon: 151 M⁻¹ s⁻¹

For COC(=O)[C@@H](CC(C)C)Nc1nc2ccccc2c(=O)o1, which Ki is on record?
The Ki was 39.8 nM.

And the koff?
Its koff is 0.00138 s⁻¹.

What about the kon of the same compound?
The kon was 39800 M⁻¹ s⁻¹.

CC(C)C[C@H](NC(=O)[C@@H]1CCCN1c1nc2ccccc2c(=O)o1)C(=O)NCC(N)=O was tested. Which koff did it give?
The koff was 0.000229 s⁻¹.

And the kon?
Its kon is 11000 M⁻¹ s⁻¹.

With CCC(CC)Nc1nc2cccc(C)c2c(=O)o1 as the compound, how does the Ki read?
The Ki was 794 nM.

And the koff?
The koff was 0.00562 s⁻¹.

What about the kon of the same compound?
The kon was 7760 M⁻¹ s⁻¹.

What does the source list for CCOC(=O)[C@H](C)Nc1nc2ccccc2c(=O)o1?
Ki: 794 nM; koff: 0.00224 s⁻¹; kon: 2570 M⁻¹ s⁻¹

Which koff does the source give for COc1cc(C)c2c(=O)oc(NC(C)C)nc2c1 here?
Its koff is 0.000794 s⁻¹.

And the kon?
Its kon is 20900 M⁻¹ s⁻¹.

Which results are given for CSc1nc2cccc(C)c2c(=O)o1?
koff: 0.000355 s⁻¹; kon: 251000 M⁻¹ s⁻¹

What does the source list for O=c1oc(C(F)(F)C(F)(F)C(F)(F)F)nc2ccccc12?
Ki: 100 nM; kon: 10000 M⁻¹ s⁻¹

How did the kon turn out when CCSc1nc2cc(OC)c(OC)cc2c(=O)o1 was run?
Its kon is 100000 M⁻¹ s⁻¹.

How did the koff turn out when COC(=O)[C@H](Cc1ccc(O)cc1)Nc1nc2ccccc2c(=O)o1 was run?
The koff was 0.000851 s⁻¹.

And the kon?
Its kon is 1900 M⁻¹ s⁻¹.

How did the Ki turn out when CCCNc1nc2cccc(C)c2c(=O)o1 [5-Methyl-2-propylamino-benzo[d][1,3]oxazin-4-one] was run?
The Ki was 6.31 nM.

And the koff?
Its koff is 0.000339 s⁻¹.

And the kon?
Its kon is 56200 M⁻¹ s⁻¹.

O=c1oc(C(F)(F)C(F)(F)F)nc2ccccc12 was tested. Which Ki did it give?
The Ki was 100 nM.

Cc1cc(N(C)C)cc2nc(NC(C)C)oc(=O)c12 was tested. Which koff did it give?
The koff was 0.000129 s⁻¹.

And the kon?
The kon was 102 M⁻¹ s⁻¹.

For Cc1nc2c(N)cccc2c(=O)o1, which kon is on record?
The kon was 2000 M⁻¹ s⁻¹.
